Data from patent US20070015138A1, “Methods for identifying agents and conditions that modulate neurogenesis” (BrainCells, Inc., priority 2005, published 2007).
“Also recorded” adds a separate entry of the source. Like-named read-outs stand apart in the source and are kept apart here.

How the values were obtained:
[1] = test system: cultured human neural stem cells (hNSCs); test: Automated differentiation assay using monolayer cultures, neuronal lineage (Tuj1 staining per Hoechst-counted cell); assay type: cell-based; details: for concentration at which the agent by itself affected neuronal differentiation / effect on differentiation along a neuronal lineage, agent by itself: no constitutive factor; for effect on differentiation along a neuronal lineage, agent by itself: normalized to neuronal positive control; for effect on neuronal differentiation, AMPA combined with M6: AMPA about 3 nM to about 10 μM plus 10 μM M6 (cyclo-(Pro-Gly)), FIG. 5; for EC50: Homo sapiens, Neural stem cell
Procedure: (§1) Cells were cultured in mitogen free test media or exposed to differentiating agents as described herein immediately upon plating of cells. Stable, differentiation-compatible culture may be used with automated equipment (like Perkin Elmer Evolution P3, Perkin Elmer Multiprobe II Plus and Bio-Tek ELx405 Select CW as non-limiting examples) to replace 50% of media with newly prepared media and differentiation agent between 3 to 4 days after commencement of the experiment.
(§2) Measurement of the resulting NSC differentiation may be performed by fixation and staining as described herein and subsequent use of automated equipment (InCell Analyzer high throughput imaging system) to take multiple pictures per well, at multiple wavelengths. Quantification of neuronal differentiation was performed by measuring the amount of Tuj1 staining and dividing the number by the number of cells as determined through automated counting of Hoechst stained cell nuclei. Quantification of astocytic differentiation was performed by measuring the amount of GFAP staining and dividing the number by the number of cells as determined through automated counting of Hoechst stained cell nuclei. […] An agent's effect on astrocyte or oligodendrocyte differentiation can be determined in a similar manner using other cell type specific antibodies, examples of which include GFAP (astrocytes), NF-200 (neurons), and O1 and O4 (oligodendrocytes).

[2] = test system: cultured human neural stem cells (hNSCs); test: Automated differentiation assay using monolayer cultures, astrocyte lineage (GFAP staining per Hoechst-counted cell); assay type: cell-based; details: for effect on differentiation along an astrocyte lineage (astrogenesis), agent alone: normalized to astrocyte positive control
Procedure: as §1, §2

[3] = test system: Human NSCs plated as monolayers
Procedure: Human NSCs maintained as neurospheres are plated as monolayers on laminin/poly-L-lysine coated plates and assayed for proliferation and/or differentiation, as described in Examples 3 and 4, except that the test media is modified to include one or more neurotransmitters at various concentrations to facilitate detection of neurogenesis modulating agents. […] Proliferation is measured as the mean cell intensity per microscopic field of view, with the mean cell intensity for control experiments subtracted. Data is plotted as a dose response curve of dopamine with and without 2 independent concentrations of 5-HTP.

[4] = test system: human NSCs cultured as monolayers in 96-well plates; details: DMSO vehicle max 0.3%, FIG. 8
Procedure: Briefly, cells were cultured as described in Example 5 with the presence of histamine. The histamine was dissolved in DMSO as a vehicle, and cells were exposed to a maximum concentration of 0.3% vehicle. Cell number was determined by fixation and exposure of cells to Hoechst stain. Image acquisition was automated with the use of an InCell Analyzer 1000, and the number of cells determined by automated counting of stained nuclei. […] (see FIG. 8).
Toxic effects of agents can be determined in a similar manner. NSCs were exposed to BAY-60-7550 as described above and cell number was quantified.

[5] = test system: human NSCs in monolayer culture; test: Automated proliferation (growth or trophism) assay using monolayer cultures, test media with mitogens; assay type: cell-based; details: control conditions, across a range of concentrations; FIG. 1B
Procedure: Sterile, tissue culture treated, clear bottom 96-well plates (e.g., Costar 3712) are coated 10 μg/ml poly-L-lysine and 50 μg/ml mouse Laminin, as described in Example 2. 10-15 neurospheres in maintenance media (see, Example 2) are transferred (estimated at 100,000 cells/sphere) to an eppendorf tube and enzymatically dissociated as described in Example 2. Approximately 50,000 cells are plated per 100 μl/well. The cells are allowed to attach by incubating for approximately one hour, and 100 μl/well of test compounds are added. […] Compounds are prepared using Perkin-Elmer MultiPROBE II PLUSHT EX (Protocol 8-point HumanCRC96-well) in test media (30% Hams F12 (Gibco 11765-062), 70% DMEM (Gibco 11965-118), 1% PSA (Gibco-BRL 15420-062), 1% N2 (Gibco-BRL 17502-048), 20 ng/ml EGF (Sigma E9644), 10 ng/ml LIF (Chemicon LIF100), 20 ng/ml bFGF (R and D 233-FB) and 5 μg/ml heparin (Sigma H3149)).
Each plate contains controls containing test media (positive control) and test media without growth factors (negative control). Plates are incubated at 37° C. and 5% CO2 for a total of 7 days. At day 4, the cell plates are aspirated and fresh compound/media is added. After incubation, the wells are washed 1× with 0.1M Tris-Buffered Saline (TBS), and incubated at room temperature for 30 minutes with 100 μl/well of Fixing/Nuclear staining solution (8 μg/ml Hoechst 33342 and 3.7% Formaldehyde in 0.1M TBS). […]

Compound: N[C@@H](Cc1c[nH]c2ccc(O)cc12)C(=O)O [5-HTP, 5-Hydroxy L tryptophan]
- concentration at which the agent by itself affected neuronal differentiation [1]: ≥ 4 µM
- effect on differentiation along a neuronal lineage, agent by itself [1]: increased differentiation of NSCs into neurons; also recorded: significantly enhanced neuronal differentiation

Compound: Cc1onc(O)c1CC(N)C(=O)O (stereo not drawn) [AMPA, alpha-amino-3-hydroxy-5-methyl-4-isoxazolepropionic acid]
- effect on neuronal differentiation, AMPA combined with M6 [1]: significantly enhanced levels of neuronal differentiation
- concentration at which the agent by itself affected neuronal differentiation [1]: about 30 μM
- effect on differentiation along a neuronal lineage, agent by itself [1]: only a slight effect

Compound: C[C@]12CC[C@H](O)CC1=CC[C@@H]1[C@@H]2CC[C@]2(C)C(=O)CC[C@@H]12 [DHEA]
- effect on differentiation along a neuronal lineage, agent by itself [1]: promotes differentiation

Compound: CC(N)Cc1ccccc1 (stereo not drawn) [amphetamine]
- EC50 ([1]; plus 10 μM dopamine, FIG. 2B, read-out: EC50, neuronal differentiation in combination with dopamine): ~30 µM
- effect on differentiation along a neuronal lineage, agent by itself [1]: did not have a significant effect
- effect on neuronal differentiation in combination with dopamine as constitutive factor ([1]; plus 10 μM dopamine): significantly enhanced neuronal differentiation

Compound: O=C1CC2(CCCC2)CC(=O)N1CCCCN1CCN(c2ncccn2)CC1 [buspirone]
- effect on differentiation along a neuronal lineage, agent by itself [1]: promotes differentiation into both neurons and astrocytes
- effect on differentiation along an astrocyte lineage (astrogenesis), agent alone [2]: promotes differentiation into both neurons and astrocytes

Compound: NCCc1ccc(O)c(O)c1 [dopamine]
- concentration at which the agent by itself affected neuronal differentiation [1]: ≥ 1 µM
- effect on differentiation along a neuronal lineage, agent by itself [1]: minor effect; also recorded: only a slight effect
- effect on differentiation along a neuronal lineage, agent by itself ([1]; listed as Dopamine): did not promote differentiation
- effect on neuronal differentiation in combination with 5-HTP as constitutive factor ([1]; plus 10 μM or 30 μM 5-HTP, FIG. 4B): concentration-dependent increase in NSC differentiation; also recorded: significantly enhanced neuronal differentiation
- effect on NSC proliferation (mean cell intensity) with 10 μM 5-HTP ([3]; in the presence of 10 μM 5-HTP): substantially enhanced
- effect on NSC proliferation (mean cell intensity) with 30 μM 5-HTP ([3]; in the presence of 30 μM 5-HTP, particularly at higher test agent concentrations): further enhanced
- effect on NSC proliferation (mean cell intensity), test agent alone ([3]; media-only background subtracted): small dose-dependent effect

Compound: NCCc1c[nH]cn1 [histamine]
- cell proliferation / cell growth (cell number), trophic effect [4]: promotes increased cell proliferation
- cell proliferation / cell growth (cell number), trophic effect ([4]; listed as Histamine): promoted cell growth in a concentration-dependent manner

Compound: COc1ccc2[nH]cc(CCNC(C)=O)c2c1 [melatonin]
- effect on neuronal differentiation, buspirone with melatonin ([1]; increasing melatonin added to buspirone concentration-response curve, FIG. 11 upper panel): differentiation into neurons is preserved
- effect on astrocyte differentiation, buspirone with melatonin ([2]; increasing melatonin added to buspirone concentration-response curve, FIG. 11 lower panel): repression of astrocytes
- effect on differentiation along an astrocyte lineage (astrogenesis), agent alone [2]: no effect on astrogenesis

Compound: COC(=O)C(c1ccccc1)C1CCCCN1 (stereo not drawn) [methylphenidate]
- concentration at which the agent by itself affected neuronal differentiation [1]: greater than 1 μM
- effect on differentiation along a neuronal lineage, agent by itself [1]: only a slight effect
- effect on neuronal differentiation in combination with dopamine as constitutive factor ([1]; plus 10 μM dopamine): significantly enhanced the degree of neuronal differentiation

Compound: CN1CC[C@]23c4c5ccc(O)c4O[C@H]2[C@@H](O)C=C[C@H]3[C@H]1C5 [morphine]
- effect on DHEA-driven normal NSC neuronal differentiation (NSC monolayer culture; simultaneous exposure with DHEA): inhibition of normal NSC differentiation

Compound: O=C1CC[C@@]2(O)[C@H]3Cc4ccc(O)c5c4[C@@]2(CCN3CC2CC2)[C@H]1O5 [naltrexone]
- toxicity or proliferation (cell number dose-response) [5]: non-neurogenic (non-tropic) and non-toxic; also recorded: neither toxic nor trophic
- rescue of morphine-inhibited neuronal differentiation (NSC monolayer culture; cells exposed to both morphine and naltrexone, FIG. 10): rescue of neurogenesis; also recorded: rescues opioid-induced inhibition

Compound: NC[C@H](O)c1ccc(O)c(O)c1 [norepinephrine]
- EC50 ([1]; mean of two independent experiments, FIG. 3A, read-out: EC50, neuronal differentiation, agent by itself): ~4 µM
- effect on differentiation along a neuronal lineage, agent by itself [1]: significantly enhanced neuronal differentiation
- effect on differentiation along an astrocyte lineage (astrogenesis), agent alone [2]: no effect

Compound: cyclo(Pro-Gly) [M6]
- effect on neuronal differentiation, AMPA combined with M6 [1]: potentiates AMPA activity
